The text below walks through data of PubChem BioAssay AID1996.

Each structure is given as a SMILES string. In brackets after ≈: the same amount, converted by molar mass.

For the series the following is noted: buffer; pH 7.4; 200.0 µM.
One may read the solubility (kinetic) as the concentration staying in solution when a stock, usually in DMSO, is diluted into the medium. Take `CC(C)S(=O)(=O)c1csc(C(=O)Nc2ccc(F)cc2)c1N`: the kinetic solubility was determined as 13.6 µg/mL (≈ 39.7 µM).
For the molecule `O=C(CCCc1nc(-c2ccccc2Cl)no1)N1CCOCC1`, the solubility (kinetic) was greater than 50.4 µg/mL.
Under `Clc1ccc(NCc2cccnc2)cc1` stands 29.9 µg/mL (≈ 137 µM); under `CN(Cc1ccccc1)C(=O)c1cc2cc(F)ccc2[nH]1`, 1 µg/mL (≈ 3.54 µM); under `CC(=O)Nc1ccc(S(=O)(=O)Nc2ccc(N3CCCCC3)cc2)cc1`, 51.9 µg/mL (≈ 139 µM).
Molecule `CC(C)(C)OC(=O)N1CCCN(C(=O)c2ccc(Cl)cc2)CC1` yielded a kinetic solubility greater than 50.8 µg/mL.
`CSc1ccccc1C(=O)N(C)Cc1ccccc1`: the kinetic solubility is greater than 40.7 µg/mL.
Under `CN(C)c1ccc(/C=C/C(=O)c2ccc(O)cc2)cc1[N+](=O)[O-]` stands 1.2 µg/mL (≈ 3.84 µM); under `CCC(C)[C@H](NC(=O)N1CCCCCC1)C(=O)OC` (some centres undefined), 1.2 µg/mL (≈ 4.44 µM); under `Cc1ccc2c(CC(=O)NC3CCS(=O)(=O)C3)coc2c1C` (centres undefined), greater than 48.2 µg/mL.
In the case of `O=C(Nc1ccc(Oc2ccccc2)cc1)N[C@@H](Cc1ccccc1)C(=O)O` it was greater than 56.5 µg/mL.
In the case of `COC(=O)c1ccc(CNC(=O)COC(=O)c2cc(Cl)ccc2O)cc1` it was 7.1 µg/mL (≈ 18.8 µM); in that of `CN(C)c1ccc(-c2nc3cc(N)ccc3o2)cc1`, 14 µg/mL (≈ 55.3 µM); in that of `CCOC(=O)c1sc(=S)n(-c2ccc(OC)cc2)c1N`, 2 µg/mL (≈ 6.44 µM).
As for `Nc1nc2ccccc2n1CCOc1ccc(F)cc1`, the kinetic solubility was greater than 40.7 µg/mL.
Under `Cc1cc(=O)c(C(=O)O)nn1-c1ccccc1C(F)(F)F` stands greater than 44.7 µg/mL.
Under `O=C(Cc1cccs1)Nc1ccc(F)cc1` stands greater than 35.3 µg/mL.
Under `Cc1ccc2[nH]cc(CCNC(=O)C3CCCCC3)c2c1` stands 34.2 µg/mL (≈ 120 µM); under `O=C(O)CCCC(=O)Nc1nncs1`, greater than 32.3 µg/mL.
`O=C(O)c1ccccc1N(Cc1ccccc1)C(=O)COc1ccccc1`: the solubility (kinetic) is greater than 54.2 µg/mL.
In the case of `NC(=O)C1CCCN(C(=O)CNC(=O)C23CC4CC(CC(C4)C2)C3)C1` (centres undefined) it was 38.3 µg/mL (≈ 110 µM).
In the case of `O=C(C#Cc1ccccc1)NCc1ccccc1F` it was 8.1 µg/mL (≈ 32 µM); in that of `CCCOc1ccc(C(=O)NCC(C)(C)N2CCOCC2)cc1`, greater than 48.1 µg/mL.
In turn, `CC(=O)ONC(=Nc1ccccc1)c1nonc1N` came in with a solubility (kinetic) greater than 39.2 µg/mL.
Under `O=C1Nc2ccccc2/C1=C/c1ccnc2ccccc12` stands 3.5 µg/mL (≈ 12.9 µM); under `Nc1ccccc1SCc1ccccc1Cl`, 3.3 µg/mL (≈ 13.2 µM).
As for `S=C(NCC1COc2ccccc2O1)Nc1ccccc1` (centres undefined), the kinetic solubility was found to be 6.5 µg/mL (≈ 21.6 µM).
As to `CCCN(CCO)C1CCN(CCc2ccccc2)CC1`, the kinetic solubility is 27.4 µg/mL (≈ 94.3 µM).
Regarding `O=C(Cc1c(Cl)cccc1Cl)OCC(=O)N1CCOCC1`, the solubility (kinetic) was greater than 49.8 µg/mL.
Molecule `O=C(CNC(=O)C1CCCCC1)NCc1ccco1` showed a solubility (kinetic) greater than 39.6 µg/mL.
In the case of `Cc1cccc(NC(=O)c2cccc(C(=O)Nc3cccc(C)c3)n2)c1` it was less than 0.2 µg/mL.
Under `Cc1cc(C(=O)OCC(=O)N(C)c2ccccc2)ccc1[N+](=O)[O-]` stands 42.1 µg/mL (≈ 128 µM); under `O=C(Nc1ccccc1)c1ccccc1NC(=O)[C@H]1CCCC[C@H]1C(=O)O`, greater than 55 µg/mL; under `Cc1cc(N2CCOCC2)nc(SCC(=O)OCc2ccccc2)n1`, greater than 53.9 µg/mL.
`CN(C)c1ccc(/C=N/NC(=O)c2ccn(C)n2)cc1`: the kinetic solubility was greater than 40.7 µg/mL.
Under `O=C(O)c1cc(S(=O)(=O)NCCCN2CCCC2=O)ccc1Cl` stands greater than 54.1 µg/mL; under `O=C(Nc1ccc(N2CCCCC2)c(S(=O)(=O)Nc2ccccc2Cl)c1)c1cccnc1`, 1.5 µg/mL (≈ 3.18 µM).
In the case of `CCN1CCN(c2ccc(NC(=O)c3cccc(S(=O)(=O)N4CCCC4)c3)cc2)CC1` it was 63.2 µg/mL (≈ 143 µM); in that of `O/N=C/Cc1[nH]c2ccccc2c1-c1ccccc1`, 34.8 µg/mL (≈ 139 µM).
For `CCN(Cc1ccncc1)C(=O)CCc1ccccc1`, the kinetic solubility came to 33.4 µg/mL (≈ 124 µM).
As for `O=C(O)c1ccccc1C(=O)NC1=NN(c2ccccc2)CC1`, the solubility (kinetic) was greater than 46.4 µg/mL.
Under `CCOc1ccc(NC(=O)Nc2ccc3c(c2)CCC3)cc1` stands less than 0.3 µg/mL.
For `C#CCOc1ccc(/C=C2/C(=O)ON=C2C)cc1Br`, the kinetic solubility worked out at 42.7 µg/mL (≈ 133 µM).
Molecule `COc1cccc(C(=O)N2CCN(c3ccccn3)CC2)c1` returned a solubility (kinetic) of 43.8 µg/mL (≈ 147 µM). This solubility kinetic and that of the molecule before are within 1.5-fold of each other.
On to `Cn1ccnc1SCC(=O)c1ccc(F)cc1`, for which the solubility (kinetic) was determined as 32.3 µg/mL (≈ 129 µM).
For `COc1ccc(-c2cccc(C(=O)N3CCOCC3)c2)cc1`, the solubility (kinetic) was found to be 40 µg/mL (≈ 135 µM). This solubility kinetic and that of the molecule before are within 1.5-fold of each other.
In the case of `CC(C)OC(=O)CSc1nc2c(cc1C#N)CCCCC2` it was less than 0.3 µg/mL; in that of `O=C(COC(=O)c1cc2ccccc2cc1O)NC1CCCCC1`, 5.9 µg/mL (≈ 18 µM); in that of `CN(C)CCOC(=O)NC12CC3CC(CC(C3)C1)C2.Cl`, greater than 45.4 µg/mL.
In turn, `COc1cccc(CN(C)Cc2c(O)ccc3ccccc23)c1` had a solubility (kinetic) of 29.6 µg/mL (≈ 96.3 µM).
Under `Cc1cccn2c(=O)c(/C=N/O)c(NCc3ccccc3)nc12` stands less than 0.2 µg/mL; under `Nc1cc(=O)[nH]c(SCC(=O)Nc2cccc(Cl)c2Cl)n1`, 8.4 µg/mL (≈ 24.3 µM).
Take `CCc1cn(C2CC(O)C(CO)O2)c(=O)[nH]c1=O` (centres undefined): the solubility (kinetic) is greater than 38.4 µg/mL.
As for `CC(OC(=O)c1ccco1)C(=O)NCc1ccc2c(c1)OCO2` (centres undefined), the kinetic solubility is greater than 47.6 µg/mL.
Turning to `Cc1ccccc1C(=O)NC(=S)N(Cc1ccccc1)c1ccccn1`, the kinetic solubility was greater than 54.2 µg/mL.
With `O=C(NCCCn1ccnc1)c1ccc(-c2cccc(C(F)(F)F)c2)o1`, the solubility (kinetic) was greater than 54.5 µg/mL.
Under `O/N=C\c1cnc(N2CCN(c3ccccc3)CC2)s1` stands 2.9 µg/mL (≈ 10.1 µM); under `Cc1cccc(NC(=O)C2CCN(S(C)(=O)=O)CC2)c1C`, greater than 46.6 µg/mL.
Under `Fc1ccc(N2CCN(Cc3cnc(Cl)s3)CC2)cc1` stands 45.9 µg/mL (≈ 147 µM); under `O=S(=O)(c1ccc(Cl)cc1)N1CCC(n2cccc2)CC1`, 0.6 µg/mL (≈ 1.85 µM); under `N#Cc1c(N2CCCC(O)C2)nc(N)c2c(N)nc3c(c12)CC(=O)N3C12CC3CC(CC(C3)C1)C2` (centres undefined), 2.4 µg/mL (≈ 5.07 µM).
In turn, `COc1ccc2nc(N(CCN(C)C)C(=O)c3ccc4ccccc4c3)sc2c1.Cl` returned a solubility (kinetic) of 24.9 µg/mL.
In the case of `CC(=O)c1ccc(NC(=O)Nc2cccc3ccccc23)cc1` it was 0.4 µg/mL (≈ 1.31 µM); in that of `COc1ccc2c(c1O)C13CCN(C)C(C2)C1CCC(=O)C3` (centres undefined), greater than 45.2 µg/mL; in that of `O=C(N/N=C\c1cccnc1)c1ccccc1O`, greater than 36.2 µg/mL.
In the case of `Nc1nc(SC23CC4CC(CC(C4)C2)C3)ns1` it was less than 0.2 µg/mL; in that of `CCN1CCN(Cc2nnc(-c3ccc(C)cc3)o2)CC1`, greater than 43 µg/mL; in that of `CNC(=S)NNC(=O)Cc1ccc(OC)cc1`, greater than 38 µg/mL.
The molecule `Cc1nc(NC(=O)c2ccc(Br)o2)ccc1Br` showed a kinetic solubility of less than 0.4 µg/mL.
`O=C(c1ccco1)N1CCCC(Nc2ccc3c(c2)OCCO3)C1` (centres undefined) yielded a solubility (kinetic) of 44.7 µg/mL (≈ 136 µM).
Consider `COc1ccc(-c2cn3cc([N+](=O)[O-])ccc3n2)cc1OC`, for which the solubility (kinetic) came out at 16.6 µg/mL (≈ 55.5 µM).
Molecule `Cc1cc(Cc2cc(C)c(N)cc2C)c(C)cc1N` returned a solubility (kinetic) greater than 38.2 µg/mL.
Consider `CC(OC(=O)c1ccc(C#N)cc1)C(=O)Nc1ccc(Cl)cn1` (centres undefined), for which the solubility (kinetic) turned out to be 5.4 µg/mL (≈ 16.4 µM).
In the case of `O=C(NC(=S)N1CCN(c2ccccc2)CC1)c1c(F)cccc1F` it was greater than 54.2 µg/mL; in that of `N#CCOC(=O)C1c2ccccc2Oc2ccccc21`, 35.2 µg/mL (≈ 133 µM); in that of `CCCNC(=O)CN1C(=O)NC(CC)(c2ccc(F)cc2)C1=O` (centres undefined), greater than 48.2 µg/mL.
Under `Cc1nc2cc(C)c(C)cc2s1` stands 0.7 µg/mL (≈ 3.95 µM); under `Cc1ccc(C(=O)NCC(c2ccco2)N2CCOCC2)cc1` (centres undefined), greater than 47.2 µg/mL.
In the case of `CC(CCc1ccccc1)NC(C)C(O)c1ccc(O)cc1.Cl` (centres undefined) it was greater than 50.4 µg/mL.
In turn, `CC(O)c1nc2cc([N+](=O)[O-])ccc2n1Cc1ccccc1` (centres undefined) yielded a kinetic solubility of 6.9 µg/mL (≈ 23.2 µM).
Turning to `CN(CC(=O)Nc1cccc(F)c1)C(=O)c1ccc(N2CCOCC2)c([N+](=O)[O-])c1`, the kinetic solubility turned out to be 33.7 µg/mL (≈ 80.9 µM).
In the case of `O=C1CCCN1CCCNS(=O)(=O)c1cccc(F)c1` it was greater than 45.1 µg/mL; in that of `COc1ccc(NS(=O)(=O)N2CCOCC2)cc1`, greater than 40.8 µg/mL.
Molecule `Cc1ccccc1C(=O)N1CCC(C(=O)NC2CCCC2)CC1` registered a kinetic solubility of 38.6 µg/mL (≈ 123 µM).
In the case of `Cc1cccnc1NC(=O)CCNC(=O)c1ccccc1Cl` it was greater than 47.7 µg/mL; in that of `CC(C)Cn1c(-c2cccnc2)nc2c1c(=O)[nH]c(=O)n2CC(C)C`, 45.7 µg/mL (≈ 134 µM); in that of `Cc1cccc(-n2c(O)c(C=Nc3cccc(O)c3)c3ccccc3c2=O)n1`, 0.8 µg/mL (≈ 2.15 µM).
In the case of `Nc1cccc(CN2CCCC2)c1` it was greater than 26.4 µg/mL; in that of `CCCCCn1c(=O)c(C(=O)Nc2ccccc2N)c(O)c2ccccc21`, less than 0.3 µg/mL; in that of `Cc1cc(=O)n2c(n1)NC(Nc1cccc(C)c1C)=NC2c1ccccc1` (centres undefined), 1.7 µg/mL (≈ 4.73 µM).
In the case of `COc1ccc2[nH]cc(C(=O)CN3CCCC(C)(C)C3)c2c1` it was greater than 45.1 µg/mL.
In the case of `Cn1ncc(Br)c1C(=O)N1CCCCCC1`, the kinetic solubility is greater than 42.9 µg/mL.
In the case of `Cc1ccc(C(=O)O/N=C(\N)Cc2cccs2)c(Cl)c1` it was 15.2 µg/mL (≈ 49.2 µM); in that of `CCOC(=O)c1sc(S(C)=O)c2c1CCc1conc1-2` (centres undefined), greater than 46.7 µg/mL; in that of `Clc1ccc(OCC#CCN2CCCC2)cc1.O=C(O)C(=O)O`, 45.1 µg/mL.
Under `O=C(COC(=O)c1ccc(O)cc1)Nc1nccs1` stands greater than 41.7 µg/mL; under `Cc1ccc(NC(=O)CN(C)C(=O)CSc2ccccc2F)cc1`, 5.2 µg/mL (≈ 15 µM); under `COc1ccc(NC(=O)c2cc(-c3ccncc3)nc3ccccc23)c(OC)c1`, 4.2 µg/mL (≈ 10.9 µM).
In the case of `Cc1cc(NC(=O)CS(=O)(=O)c2c[nH]c3ccccc23)no1` it was greater than 47.9 µg/mL; in that of `CC(OC(=O)c1ccco1)C(=O)NC1CCCC1` (centres undefined), greater than 37.7 µg/mL.
With `C=CCc1cccc2cc(C(=O)Nc3ccc(NC(C)=O)cc3)c(=O)oc12`, the solubility (kinetic) amounted to 1.7 µg/mL (≈ 4.69 µM).
In turn, `COc1cccc(OC)c1OCCOCCN1CCN(C)CC1` returned a kinetic solubility of 48.6 µg/mL (≈ 150 µM).
Under `C=CCn1c(SCC(=O)NCC2CCCO2)nc2sc(CC)cc2c1=O` (centres undefined) stands greater than 59 µg/mL.
In the case of `Cn1c(/C(C#N)=C/c2ccc(O)cc2)nc2ccccc21`, the kinetic solubility was determined as 5.5 µg/mL (≈ 20 µM).
